#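 Method: 48-hour compound exposure of cells in 96-well plates, five concentrations, linear interpolation of endpoints. GI50 is the concentration that inhibits growth by half.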 The source made the active and inactive calls. Cut-off read from the data, not from the text of the source: active = GI50 up to about 1.1 µM and inactive = higher.
# How the values were obtained:
# Experiment in all cases: DTP human tumour cell line panel, 48 h
# A549 = tested on: A549
# COLO 205 = tested on: COLO 205
# IGROV-1 = tested on: IGROV-1
# OVCAR-5 = tested on: OVCAR-5
# NCI-H226 = tested on: NCI-H226
# OVCAR-3 = tested on: OVCAR-3
# HOP-62 = tested on: HOP-62
# SN12C = tested on: SN12C
# UO-31 = tested on: UO-31
# RXF 393 = tested on: RXF 393
# TK-10 = tested on: TK-10
# ACHN = tested on: ACHN
# CAKI-1 = tested on: CAKI-1
# HOP-92 = tested on: HOP-92
# KM12 = tested on: KM12
# SF-539 = tested on: SF-539
# MDA-MB-231 = tested on: MDA-MB-231
# Hs-578T = tested on: Hs-578T
# NCI/ADR-RES = tested on: NCI/ADR-RES
# DU-145 = tested on: DU-145
SMILES,GI50 (A549),GI50 (COLO 205),GI50 (IGROV-1),GI50 (OVCAR-5),GI50 (NCI-H226),GI50 (OVCAR-3),GI50 (HOP-62),GI50 (SN12C),GI50 (UO-31),GI50 (RXF 393),GI50 (TK-10),GI50 (ACHN),GI50 (CAKI-1),GI50 (HOP-92),GI50 (KM12),GI50 (SF-539),GI50 (MDA-MB-231),GI50 (Hs-578T),GI50 (NCI/ADR-RES),GI50 (DU-145)
CCSc1nc2sc(C)c(C)c2c(=O)n1-c1ccc(C(=O)O)cc1,65.3 µM (inactive),> 100 µM (inactive),90.8 µM (inactive),> 100 µM (inactive),19.8 µM (inactive),24.8 µM (inactive),88.5 µM (inactive),55.1 µM (inactive),25.1 µM (inactive),25.5 µM (inactive),> 100 µM (inactive),79.6 µM (inactive),> 100 µM (inactive),> 100 µM (inactive),54.8 µM (inactive),18.8 µM (inactive),–,–,–,–
CC(=O)/C=c1\[nH]/c(=C\C=C\c2ccccc2)c(=O)n1/C=C1\C(=O)Oc2ccccc2C1=O,> 100 µM (inactive),> 100 µM (inactive),> 100 µM (inactive),> 100 µM (inactive),> 100 µM (inactive),> 100 µM (inactive),–,–,> 100 µM (inactive),–,> 100 µM (inactive),> 100 µM (inactive),> 100 µM (inactive),> 100 µM (inactive),> 100 µM (inactive),> 100 µM (inactive),> 100 µM (inactive),> 100 µM (inactive),> 100 µM (inactive),> 100 µM (inactive)
CCOCc1cc(=O)c2cc3c(cc2o1)OC(C)(C)CC3,> 100 µM (inactive),> 100 µM (inactive),> 100 µM (inactive),> 100 µM (inactive),> 100 µM (inactive),> 100 µM (inactive),> 100 µM (inactive),> 100 µM (inactive),92.9 µM (inactive),> 100 µM (inactive),> 100 µM (inactive),> 100 µM (inactive),> 100 µM (inactive),45.7 µM (inactive),> 100 µM (inactive),> 100 µM (inactive),–,–,–,–
COc1cc([C@@H]2c3cc4c(cc3[C@@H](NCc3ccc(C#N)cc3)C3COC(=O)[C@@H]32)OCO4)cc(OC)c1O (stereo partly specified),0.0923 µM (active),0.948 µM (active),1.15 µM (inactive),2.02 µM (inactive),0.283 µM (active),2.16 µM (inactive),0.31 µM (active),0.414 µM (active),1.61 µM (inactive),2.96 µM (inactive),1.84 µM (inactive),0.272 µM (active),1.26 µM (inactive),1.88 µM (inactive),1.4 µM (inactive),0.877 µM (active),–,–,–,–
COc1c(OC(C)=O)cc2c(OC(C)=O)c1CC(C)CC(OC)C(O)C(C)/C=C(\C)C(OC(N)=O)C(OC)/C=C\C=C(/C)C(=O)N2 (stereo unspecified),> 71.3 µM (inactive),5.77 µM (inactive),> 100 µM (inactive),> 100 µM (inactive),> 100 µM (inactive),98.4 µM (inactive),> 100 µM (inactive),69.5 µM (inactive),> 83.6 µM (inactive),98.2 µM (inactive),> 81.8 µM (inactive),> 100 µM (inactive),> 100 µM (inactive),96.8 µM (inactive),> 100 µM (inactive),> 100 µM (inactive),–,–,–,–
C[C@H]1[C@H](C)CC[C@]2(C)CC[C@]3(C)C(=C[C@@H](O)[C@@H]4[C@@]5(C)[C@H](O)[C@@H](O)[C@H](O)C(C)(C)[C@@H]5CC[C@]43C)[C@H]12,> 100 µM (inactive),> 100 µM (inactive),67.8 µM (inactive),> 100 µM (inactive),–,77.1 µM (inactive),> 100 µM (inactive),> 100 µM (inactive),> 100 µM (inactive),–,–,> 100 µM (inactive),> 100 µM (inactive),–,96.2 µM (inactive),> 100 µM (inactive),> 100 µM (inactive),> 100 µM (inactive),> 100 µM (inactive),> 100 µM (inactive)
CN(C)C1(N(C)C)Oc2c(c(=O)n(C)c(=O)n2C)C(c2ccccc2Br)C1(F)F (stereo unspecified),> 100 µM (inactive),> 100 µM (inactive),–,> 100 µM (inactive),> 100 µM (inactive),> 100 µM (inactive),> 100 µM (inactive),–,> 100 µM (inactive),> 100 µM (inactive),> 100 µM (inactive),> 100 µM (inactive),> 100 µM (inactive),> 100 µM (inactive),> 100 µM (inactive),> 100 µM (inactive),> 100 µM (inactive),–,> 100 µM (inactive),> 100 µM (inactive)
O=C(O)CSC(NC(=O)C(C(F)(F)F)C(F)(F)F)(C(F)(F)F)C(F)(F)F,> 100 µM (inactive),> 100 µM (inactive),> 100 µM (inactive),> 100 µM (inactive),–,–,–,> 100 µM (inactive),> 100 µM (inactive),28.4 µM (inactive),> 100 µM (inactive),> 100 µM (inactive),1.38 µM (inactive),–,–,> 100 µM (inactive),–,> 100 µM (inactive),> 100 µM (inactive),–
ON=C1CCCCC(=NO)CCCC1,> 100 µM (inactive),> 100 µM (inactive),–,–,> 100 µM (inactive),–,–,> 100 µM (inactive),> 100 µM (inactive),–,> 100 µM (inactive),> 100 µM (inactive),> 100 µM (inactive),> 100 µM (inactive),> 100 µM (inactive),> 100 µM (inactive),> 100 µM (inactive),> 100 µM (inactive),> 100 µM (inactive),> 100 µM (inactive)
OC1CC2CCCN(CCc3c1[nH]c1ccccc31)C2 (stereo unspecified),> 100 µM (inactive),> 100 µM (inactive),–,–,> 100 µM (inactive),–,–,> 100 µM (inactive),> 100 µM (inactive),–,> 100 µM (inactive),> 100 µM (inactive),> 100 µM (inactive),> 100 µM (inactive),> 100 µM (inactive),> 100 µM (inactive),89.3 µM (inactive),> 100 µM (inactive),> 100 µM (inactive),> 100 µM (inactive)
C[C@@H](O)C(=O)N1[C@@H]2CC3CC[C@]2(CS1(=O)=O)C3(C)C,95.1 µM (inactive),79.3 µM (inactive),> 100 µM (inactive),> 100 µM (inactive),23.2 µM (inactive),> 100 µM (inactive),> 100 µM (inactive),55.5 µM (inactive),> 100 µM (inactive),> 100 µM (inactive),> 100 µM (inactive),64.1 µM (inactive),> 100 µM (inactive),66.1 µM (inactive),82.2 µM (inactive),48.9 µM (inactive),> 100 µM (inactive),–,> 100 µM (inactive),88.1 µM (inactive)
O=[N+]([O-])c1ccc(Cl)c(C2CC(c3cccc4ccccc34)=Nc3ccccc3[S+]2[O-])c1 (stereo unspecified),20 µM (inactive),> 56.6 µM (inactive),28.2 µM (inactive),29.5 µM (inactive),21.7 µM (inactive),22.6 µM (inactive),21.8 µM (inactive),21 µM (inactive),17.7 µM (inactive),7.05 µM (inactive),31.8 µM (inactive),18.5 µM (inactive),13.2 µM (inactive),0.519 µM (active),18.9 µM (inactive),13.7 µM (inactive),–,–,–,–
O=C1Nc2ccccc2Nc2nc3cccccc-3c21,> 100 µM (inactive),> 100 µM (inactive),> 100 µM (inactive),> 100 µM (inactive),> 100 µM (inactive),> 100 µM (inactive),> 100 µM (inactive),> 100 µM (inactive),> 100 µM (inactive),> 100 µM (inactive),> 100 µM (inactive),> 100 µM (inactive),> 100 µM (inactive),> 100 µM (inactive),> 100 µM (inactive),> 100 µM (inactive),–,–,–,–
COc1ccc(OC)c(-c2cc(O)c3cc4c(cc3n2)OCO4)c1,5.87 µM (inactive),2.65 µM (inactive),10.5 µM (inactive),8.53 µM (inactive),7.38 µM (inactive),3.93 µM (inactive),13.9 µM (inactive),6.79 µM (inactive),19.8 µM (inactive),2.99 µM (inactive),11 µM (inactive),6.58 µM (inactive),4.12 µM (inactive),3.54 µM (inactive),3.86 µM (inactive),5.7 µM (inactive),–,–,–,–
CS(=O)(=O)OCCCSCCSCCCOS(C)(=O)=O,> 100 µM (inactive),> 100 µM (inactive),> 100 µM (inactive),> 100 µM (inactive),–,> 100 µM (inactive),> 100 µM (inactive),> 100 µM (inactive),> 100 µM (inactive),–,> 100 µM (inactive),–,–,40.2 µM (inactive),> 100 µM (inactive),> 100 µM (inactive),> 100 µM (inactive),–,> 100 µM (inactive),> 100 µM (inactive)
CS(=O)(=O)OCCn1cnc2nc(NC(=O)c3ccccc3)[nH]c(=O)c21,> 100 µM (inactive),> 100 µM (inactive),> 100 µM (inactive),> 100 µM (inactive),> 100 µM (inactive),> 100 µM (inactive),> 100 µM (inactive),> 100 µM (inactive),> 100 µM (inactive),> 100 µM (inactive),> 100 µM (inactive),> 100 µM (inactive),> 100 µM (inactive),> 100 µM (inactive),> 100 µM (inactive),> 100 µM (inactive),–,–,–,–
CC(C)(C)c1nc2c(o1)/C(=N\c1ccccc1)c1ccccc1C2=O,7.6 µM (inactive),32.3 µM (inactive),6.87 µM (inactive),13.6 µM (inactive),9.42 µM (inactive),1.33 µM (inactive),17.3 µM (inactive),3.64 µM (inactive),5.89 µM (inactive),4.91 µM (inactive),30.2 µM (inactive),4.69 µM (inactive),12 µM (inactive),4.69 µM (inactive),11.7 µM (inactive),2.99 µM (inactive),–,–,–,–

# — ChEMBL document CHEMBL1201862, “PubChem BioAssay data set” (2004)
